Data from patent EP4289427A1, “DIHYDRO[1,8]NAPHTHYRIDIN-7-ONE AND PYRIDO[3,2-B][1,4]OXAZIN-3-ONE FOR USE IN TREATING CANCER, AND METASTASES IN PARTICULAR” (Anagenesis Biotechnologies, priority 2022, dated 2023).

Key:
[1] = tested on: RD cells; experiment: Cytotoxicity assay (CellTiter-Glo 2.0) on RD cells; type: cell-based, Human; conditions: for IC50: Homo sapiens
Method: (§1) Cytotoxicity assays consist in treating cells with compounds and assessing remaining viability after a defined incubation time, depending on the cell line. CellTiter-Glo® 2.0 reagent allows viability measurement by quantification of ATP present, which is an indicator of metabolically active cells.
(§2) The cancer cell lines were cultivated in their respective growth medium (see tables 6a and 6b). On day 0 of the cytotoxicity assay, the cells were harvested and seeded into a 384-well plate at a defined density in their respective growth medium (see tables 6a and 6b). Compounds to be tested were then added onto the cells and incubated for a defined duration (see tables 6a and 6b). Following incubation, CellTiter-Glo® 2.0 reagent (cat.no. G9241 from Promega) was added into the wells (vol/vol, according to the manufacturer's recommendations), plates were gently shaken and incubated for 10 minutes in the dark at room temperature. Bioluminescence was then measured with a multimode plate reader (Victor Nivo from Perkin Elmer), and cell viability and relative IC50 were determined. Table 6a: Cancer cell characteristics, culture and cytotoxic assay conditions

[2] = tested on: 4T1 cells; experiment: Cytotoxicity assay (CellTiter-Glo 2.0) on 4T1 cells; type: cell-based, Mouse; conditions: incubation 2 days; for IC50: Mus musculus, 48 h
Method: as §1, §2

[3] = tested on: MDA-MB-231 cells; experiment: Cytotoxicity assay (CellTiter-Glo 2.0) on MDA-MB-231 cells; type: cell-based, Human; conditions: incubation 3 days; for IC50: Homo sapiens, 72 h
Method: as §1, §2

[4] = tested on: EoL-1 cells; experiment: Cytotoxicity assay (CellTiter-Glo 2.0) on EoL-1 cells; type: cell-based, Human; conditions: incubation 1 day; for IC50: Homo sapiens, EOL1, 24 h
Method: as §1, §2

[5] = tested on: HUVECs; experiment: Tube formation assay (anti-angiogenic activity); type: cell-based, human; conditions: incubation 16 to 18 hours; for IC50: Homo sapiens, HUVEC
Excerpt: Angiogenesis is a phenomenon that includes different processes, such as endothelial cell proliferation, migration and differentiation that lead to the formation of new blood vessels. Tube formation assay is a standard in vitro test to assess angiogenesis: briefly, human Umbilical Vein Endothelial cells (hereafter "HUVECs") cultivated on a gelled basement matrix spontaneously proliferate, migrate and differentiate to form tube-like structures, that appear elongated and that connect to each other to form a network.
HUVECs were cultivated in Endothelial Cell Growth Medium (cat.no. C-22010 from Promocell) supplemented with 1% PenStrep (hereafter "HUVEC medium"). On day 0, HUVECs were harvested and transferred into a 384-well plate precoated with 10 µl/well of Cultrex UltiMatrix Reduced Growth factor basement membrane (cat.no. BME001-10 from BioTechne), according to the manufacturer's instructions, at a density of 5000 cells/well in HUVEC medium. Compounds to be tested were then added onto the cells and incubated for 16 to 18 hours at 37°C. After this incubation period, the cells were stained with calcein-AM (cat.no. 10462052 from Fisher Scientific) and pictures were acquired using a confocal fluorescent microscope (IXM from Molecular Devices). Tube formation was measured with MetaXpress® Software.

SMILES	Cytotoxicity ([1]; 2 day-treatment)	Cytotoxicity ([1]; 4 day-treatment)	IC50 ([1]; 48 h, 2 day-treatment) [nM]	IC50 ([1]; 96 h, 4 day-treatment) [nM]	IC50 [2] [nM]	Cytotoxicity [2]	IC50 [3] [nM]	Cytotoxicity [3]	IC50 [4] [nM]	Cytotoxicity [4]	IC50 [5] [nM]	Angiogenesis inhibition [5]
CSc1cc(Oc2ccnc3c2CCC(=O)N3)ccc1NC(=O)Nc1cc(C(C)(C)C)no1 [Compound 008, 1-(3-(tert-butyl)isoxazol-5-yl)-3-(2-(methylthio)-4-((7-oxo-5,6,7,8-tetrahydro-1,8-naphthyridin-4-yl)oxy)phenyl)urea]	++ (50% ≤ cytotoxicity < 85%)	+++ (cytotoxicity ≥ 85%)	< 1000	< 1000	< 1000	+++ (cytotoxicity ≥ 85%)	< 1000	++ (50% ≤ cytotoxicity < 85%)	1 to 10	+++ (cytotoxicity ≥ 85%)	< 100	+++ (angiogenesis inhibition ≥ 80%)
CC(C)(C)c1cc(NC(=O)Nc2ccc(Oc3ccnc4c3CCC(=O)N4)c3ccccc23)on1 [Compound 009, 1-(3-(tert-butyl)isoxazol-5-yl)-3-(4-((7-oxo-5,6,7,8-tetrahydro-1,8-naphthyridin-4-yl)oxy)naphthalen-1-yl)urea]	++ (50% ≤ cytotoxicity < 85%)	++ (50% ≤ cytotoxicity < 85%)	1000 to 5000	1000 to 5000	< 1000	+++ (cytotoxicity ≥ 85%)	< 1000	++ (50% ≤ cytotoxicity < 85%)	1 to 10	+++ (cytotoxicity ≥ 85%)	< 100	+++ (angiogenesis inhibition ≥ 80%)
Cc1ccc(-n2nc(C(C)(C)C)cc2NC(=O)Nc2ccc(Oc3ccnc4c3CCC(=O)N4)cc2C(F)(F)F)cc1 [Compound 010, 1-[5-tert-butyl-2-(p-tolyl)pyrazol-3-yl]-3-[4-[(7-oxo-6,8-dihydro-5H-1,8-naphthyridin-4-yl)oxy]-2-(trifluoromethyl)phenyl]urea]	++ (50% ≤ cytotoxicity < 85%)	++ (50% ≤ cytotoxicity < 85%)	5000 to 10000	5000 to 10000	1000 to 5000	+++ (cytotoxicity ≥ 85%)	1000 to 5000	++ (50% ≤ cytotoxicity < 85%)	10 to 100	++ (50% ≤ cytotoxicity < 85%)	100 to 500	+++ (angiogenesis inhibition ≥ 80%)
Cc1ccc(-n2nc(C(C)(C)C)cc2NC(=O)Nc2ccc(Oc3ccnc4c3OCC(=O)N4)cc2C(F)(F)F)cc1 [Compound 011, 1-[5-tert-butyl-2-(p-tolyl)pyrazol-3-yl]-3-[4-[(3-oxo-4H-pyrido[3,2-b][1,4]oxazin-8-yl)oxy]-2-(trifluoromethyl)phenyl]urea]	+ (20 % ≤ cytotoxicity < 50%)	+ (20 % ≤ cytotoxicity < 50%)	5000 to 10000	≥ 10000	1000 to 5000	+++ (cytotoxicity ≥ 85%)	1000 to 5000	++ (50% ≤ cytotoxicity < 85%)	10 to 100	++ (50% ≤ cytotoxicity < 85%)	100 to 500	+++ (angiogenesis inhibition ≥ 80%)
CSc1cc(Oc2ccnc3c2OCC(=O)N3)ccc1NC(=O)Nc1cc(C(C)(C)C)nn1-c1cccc(F)c1 [Compound 012, 1-[5-tert-butyl-2-(3-fluorophenyl)pyrazol-3-yl]-3-[2-methylsulfanyl-4-[(3-oxo-4H-pyrido[3,2-b][1,4]oxazin-8-yl)oxy]phenyl]urea]	++ (50% ≤ cytotoxicity < 85%)	++ (50% ≤ cytotoxicity < 85%)	1000 to 5000	5000 to 10000	1000 to 5000	+++ (cytotoxicity ≥ 85%)	1000 to 5000	++ (50% ≤ cytotoxicity < 85%)	1 to 10	++ (50% ≤ cytotoxicity < 85%)	< 100	+++ (angiogenesis inhibition ≥ 80%)
CC(C)(C)c1cc(NC(=O)Nc2ccc(Oc3ccnc4c3OCC(=O)N4)cc2C(F)(F)F)n(-c2cccc(F)c2)n1 [Compound 014, 1-[5-tert-butyl-2-(3-fluorophenyl)pyrazol-3-yl]-3-[4-[(3-oxo-4H-pyrido[3,2-b][1,4]oxazin-8-yl)oxy]-2-(trifluoromethyl)phenyl]urea]	+ (20 % ≤ cytotoxicity < 50%)	+ (20 % ≤ cytotoxicity < 50%)	5000 to 10000	≥ 10000	1000 to 5000	+++ (cytotoxicity ≥ 85%)	1000 to 5000	+ (20 % ≤ cytotoxicity < 50%)	10 to 100	++ (50% ≤ cytotoxicity < 85%)	100 to 500	+++ (angiogenesis inhibition ≥ 80%)
CC(C)(C)c1cc(NC(=O)Nc2ccc(Oc3ccnc4c3CCC(=O)N4)cc2C(F)(F)F)n(-c2cccc(F)c2)n1 [Compound 015, 1-[5-tert-butyl-2-(3-fluorophenyl)pyrazol-3-yl]-3-[4-[(7-oxo-6,8-dihydro-5H-1,8-naphthyridin-4-yl)oxy]-2-(trifluoromethyl)phenyl]urea]	++ (50% ≤ cytotoxicity < 85%)	++ (50% ≤ cytotoxicity < 85%)	5000 to 10000	1000 to 5000	< 1000	+++ (cytotoxicity ≥ 85%)	1000 to 5000	++ (50% ≤ cytotoxicity < 85%)	10 to 100	++ (50% ≤ cytotoxicity < 85%)	< 100	+++ (angiogenesis inhibition ≥ 80%)
CSc1cc(Oc2ccnc3c2OCC(=O)N3)ccc1NC(=O)Nc1cc(C(C)(C)C)nn1-c1ccc(C)nc1 [Compound 019, 1-[5-tert-butyl-2-(6-methyl-3-pyridyl)pyrazol-3-yl]-3-[2-methylsulfanyl-4-[(3-oxo-4H-pyrido[3,2-b][1,4]oxazin-8-yl)oxy]phenyl]urea]	++ (50% ≤ cytotoxicity < 85%)	++ (50% ≤ cytotoxicity < 85%)	1000 to 5000	1000 to 5000	1000 to 5000	+++ (cytotoxicity ≥ 85%)	1000 to 5000	++ (50% ≤ cytotoxicity < 85%)	1 to 10	+++ (cytotoxicity ≥ 85%)	< 100	+++ (angiogenesis inhibition ≥ 80%)
CSc1cc(Oc2ccnc3c2OCC(=O)N3)ccc1NC(=O)Nc1cc(C(C)(C)C)nn1C [Compound 022, 1-(5-tert-butyl-2-methyl-pyrazol-3-yl)-3-[2-methylsulfanyl-4-[(3-oxo-4H-pyrido[3,2-b][1,4]oxazin-8-yl)oxy]phenyl]urea]	++ (50% ≤ cytotoxicity < 85%)	++ (50% ≤ cytotoxicity < 85%)	1000 to 5000	1000 to 5000	1000 to 5000	+++ (cytotoxicity ≥ 85%)	1000 to 5000	++ (50% ≤ cytotoxicity < 85%)	< 1	+++ (cytotoxicity ≥ 85%)	< 100	++ (80% > angiogenesis inhibition ≥ 50%)
CC(C)(C)c1cc(NC(=O)Nc2ccc(Oc3ccnc4c3CCC(=O)N4)cc2C(F)(F)F)no1 [Compound 024, 1-(5-tert-butylisoxazol-3-yl)-3-[4-[(7-oxo-6,8-dihydro-5H-1,8-naphthyridin-4-yl)oxy]-2-(trifluoromethyl)phenyl]urea]	++ (50% ≤ cytotoxicity < 85%)	++ (50% ≤ cytotoxicity < 85%)	1000 to 5000	1000 to 5000	1000 to 5000	++ (50% ≤ cytotoxicity < 85%)	1000 to 5000	++ (50% ≤ cytotoxicity < 85%)	1 to 10	+++ (cytotoxicity ≥ 85%)	100 to 500	++ (80% > angiogenesis inhibition ≥ 50%)
